Measured values published in US10765114B2, “4-amino-6-(pyridyl and 2-substitutedphenyl)-picolinates and 6-amino-2-(pyridyl and 2-substitutedphenyl)-pyrimidine-4-carboxylates and their use as herbicides” (Dow AgroSciences LLC, priority 2013, dated 2020).
Read-outs that look alike come from different tables or passages of the source.

How the values were obtained:
[1] = system: Key Broadleaf Weed and Crop Species; assay: Post-Emergent Test II (Table 5); format: in vivo; conditions: post-emergence, 336 h; for pest or weed control at 70 g/ha: application rate 70 (kg ai/ha; footnote: g ai/ha); for pest or weed control at 140 g/ha: application rate 140 (kg ai/ha; footnote: g ai/ha)
Summary of the method: (§1)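 Visual injury ratings (0 = no injury, 100 = complete kill) were taken 14 days after treatment relative to untreated plants. Seedlings at the first or second true leaf stage received an overhead spray at 187 L/ha, and solvent-blank sprayed plants served as controls.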

[2] = system: Key Grass and Sedge Weeds as well as Grass Crops; assay: Post-Emergent Test II (Table 6); format: in vivo; conditions: post-emergence, 336 h, 14 days after application; for pest or weed control at 70 g/ha: 70 g ai/ha; for pest or weed control at 140 g/ha: 140 g ai/ha
Summary of the method: as §1

[3] = Abutilon theophrasti, ABUTH: velvetleaf (Abutilon theophrasti), read-out: Visual Growth Reduction (%) 14 Days After Application ABUTH
[4] = Amaranthus retroflexus, AMARE: redroot pigweed (Amaranthus retroflexus), read-out: Visual Growth Reduction (%) 14 Days After Application AMARE
[5] = Brassica napus, BRSSS: oilseed rape, canola (Brassica napus), read-out: Visual Growth Reduction (%) 14 Days After Application BRSSS
[6] = Chenopodium album, CHEAL: lambsquarters (Chenopodium album), read-out: Visual Growth Reduction (%) 14 Days After Application CHEAL
[7] = Euphorbia heterophylla, EPHHL: wild poinsettia (Euphorbia heterophylla), read-out: Visual Growth Reduction (%) 14 Days After Application EPHHL
[8] = Helianthus annuus, HELAN: sunflower (Helianthus annuus), read-out: Visual Growth Reduction (%) 14 Days After Application HELAN
[9] = Viola tricolor, VIOTR: wild pansy (Viola tricolor), read-out: Visual Growth Reduction (%) 14 Days After Application VIOTR
[10] = CYPSS, read-out: Visual Growth Reduction (%) 14 Days After Application CYPSS
[11] = DIGSA: crabgrass (Digitaria sanguinalis), read-out: Visual Growth Reduction (%) 14 Days After Application DIGSA
[12] = ECHSS, read-out: Visual Growth Reduction (%) 14 Days After Application ECHSS
[13] = ORYSS (crop), read-out: Visual Growth Reduction (%) 14 Days After Application ORYSS
[14] = SETFA: giant foxtail (Setaria faberi), read-out: Visual Growth Reduction (%) 14 Days After Application SETFA
[15] = SORVU: grain sorghum (Sorghum vulgare), read-out: Visual Growth Reduction (%) 14 Days After Application SORVU
[16] = TRZSS (crop), read-out: Visual Growth Reduction (%) 14 Days After Application TRZSS
[17] = ZEAMX: maize, corn (Zea mays), read-out: Visual Growth Reduction (%) 14 Days After Application ZEAMX

SMILES	pest or weed control at 70 g/ha [1, 3]	pest or weed control at 140 g/ha [1, 3]	pest or weed control at 70 g/ha [1, 4]	pest or weed control at 140 g/ha [1, 4]	pest or weed control at 70 g/ha [1, 5]	pest or weed control at 140 g/ha [1, 5]	pest or weed control at 70 g/ha [1, 6]	pest or weed control at 140 g/ha [1, 6]	pest or weed control at 70 g/ha [1, 7]	pest or weed control at 140 g/ha [1, 7]	pest or weed control at 70 g/ha [1, 8]	pest or weed control at 140 g/ha [1, 8]	pest or weed control at 70 g/ha [1, 9]	pest or weed control at 140 g/ha [1, 9]	pest or weed control at 70 g/ha [2, 10]	pest or weed control at 140 g/ha [2, 10]	pest or weed control at 70 g/ha [2, 11]	pest or weed control at 140 g/ha [2, 11]	pest or weed control at 70 g/ha [2, 12]	pest or weed control at 140 g/ha [2, 12]	further results
COC(=O)c1nc(-c2ccc(Cl)nc2F)cc(N)c1Cl [Compound 17, methyl 4-amino-5,6′-dichloro-2′-fluoro-[2,3′-bipyridine]-6-carboxylate]	95 to 100%	95 to 100%	95 to 100%	95 to 100%	0 to 29%	30 to 44%	95 to 100%	95 to 100%	0 to 29%	45 to 59%	60 to 74%	75 to 84%	60 to 74%	60 to 74%	60 to 74%	75 to 84%	0 to 29%	0 to 29%	60 to 74%	85 to 94%	pest or weed control at 70 g/ha [2, 13]: 0 to 29%; pest or weed control at 140 g/ha [2, 13]: 0 to 29%; pest or weed control at 70 g/ha [2, 14]: 0 to 29%; pest or weed control at 140 g/ha [2, 14]: 0 to 29%; pest or weed control at 70 g/ha [2, 15]: 0 to 29%; pest or weed control at 140 g/ha [2, 15]: 30 to 44%; pest or weed control at 70 g/ha [2, 16]: 0 to 29%; pest or weed control at 140 g/ha [2, 16]: 0 to 29%; pest or weed control at 70 g/ha [2, 17]: 0 to 29%; pest or weed control at 140 g/ha [2, 17]: 30 to 44%
COC(=O)c1nc(-c2ccc(Cl)c(F)c2CF)cc(N)c1Cl [Compound 78, methyl 4-amino-3-chloro-6-(4-chloro-3-fluoro-2-(fluoromethyl)phenyl)picolinate]	95 to 100%	95 to 100%	95 to 100%	95 to 100%	95 to 100%	95 to 100%	95 to 100%	95 to 100%	0 to 29%	0 to 29%	85 to 94%	85 to 94%	0 to 29%	0 to 29%	45 to 59%	45 to 59%	0 to 29%	0 to 29%	0 to 29%	0 to 29%	pest or weed control at 70 g/ha [2, 13]: 0 to 29%; pest or weed control at 140 g/ha [2, 13]: 0 to 29%; pest or weed control at 70 g/ha [2, 14]: 0 to 29%; pest or weed control at 140 g/ha [2, 14]: 0 to 29%; pest or weed control at 70 g/ha [2, 15]: 0 to 29%; pest or weed control at 140 g/ha [2, 15]: 0 to 29%; pest or weed control at 70 g/ha [2, 16]: 0 to 29%; pest or weed control at 140 g/ha [2, 16]: 0 to 29%; pest or weed control at 70 g/ha [2, 17]: 0 to 29%; pest or weed control at 140 g/ha [2, 17]: 0 to 29%
Nc1c(F)c(-c2ccc(Cl)c(Cl)c2Cl)nc(C(=O)O)c1Cl [Compound 10]	0 to 29%	0 to 29%	95 to 100%	95 to 100%	95 to 100%	95 to 100%	75 to 84%	75 to 84%	60 to 74%	75 to 84%	0 to 29%	0 to 29%	0 to 29%	0 to 29%	0 to 29%	0 to 29%	0 to 29%	45 to 59%	0 to 29%	0 to 29%	pest or weed control at 70 g/ha [2, 13]: 0 to 29%; pest or weed control at 140 g/ha [2, 13]: 0 to 29%; pest or weed control at 70 g/ha [2, 14]: 0 to 29%; pest or weed control at 140 g/ha [2, 14]: 0 to 29%; pest or weed control at 70 g/ha [2, 15]: 0 to 29%; pest or weed control at 140 g/ha [2, 15]: 0 to 29%; pest or weed control at 70 g/ha [2, 16]: 75 to 84%; pest or weed control at 140 g/ha [2, 16]: 85 to 94%; pest or weed control at 70 g/ha [2, 17]: 60 to 74%; pest or weed control at 140 g/ha [2, 17]: 60 to 74%
